Data on eleven compounds can be found in PubChem BioAssay AID1259407 (Chemical Carcinogenesis Research Information System (CCRIS), 2018).

In this data set the test system is CCRIS mutagenicity, Ames/micronucleus/aberration tests. In words: CCRIS mutagenicity studies.
Setting [1] is: Test System: AMES SALMONELLA TYPHIMURIUM, Strain/Indicator: TA100, Metabolic Activation: NONE, Method: PREINCUBATION
Where [2] appears, read: Test System: AMES SALMONELLA TYPHIMURIUM, Strain/Indicator: TA98, Metabolic Activation: NONE, Method: STANDARD PLATE.
[3] abbreviates: Test System: AMES SALMONELLA TYPHIMURIUM, Strain/Indicator: TA98, Metabolic Activation: RAT, LIVER, S-9, AROCLOR 1254, Method: STANDARD PLATE.
Where [4] appears, read: Test System: AMES SALMONELLA TYPHIMURIUM, Strain/Indicator: TA100, Metabolic Activation: NONE, Method: STANDARD PLATE.
Where [5] appears, read: Test System: AMES SALMONELLA TYPHIMURIUM, Strain/Indicator: TA100, Metabolic Activation: RAT, LIVER, S-9, AROCLOR 1254, Method: STANDARD PLATE.

Activity calls are given as the source filed them. How the calls were made is not given here.

Turning to `Cc1cccc(N)c1C`, the mutagenic call by setting is: (Test System: AMES SALMONELLA TYPHIMURIUM, Strain/Indicator: TA97, Metabolic Activation: HAMSTER, LIVER, S-9, AROCLOR 1254 (10%), Method: PREINCUBATION) “inactive; negative”; (Test System: AMES SALMONELLA TYPHIMURIUM, Strain/Indicator: TA97, Metabolic Activation: NONE, Method: PREINCUBATION) “inactive; negative”; (Test System: AMES SALMONELLA TYPHIMURIUM, Strain/Indicator: TA97, Metabolic Activation: RAT, LIVER, S-9, AROCLOR 1254 (10%), Method: PREINCUBATION) “inactive; negative”; (Test System: AMES SALMONELLA TYPHIMURIUM, Strain/Indicator: TA98, Metabolic Activation: HAMSTER, LIVER, S-9, AROCLOR 1254 (10%), Method: PREINCUBATION) “active; positive”; (Test System: AMES SALMONELLA TYPHIMURIUM, Strain/Indicator: TA98, Metabolic Activation: NONE, Method: PREINCUBATION) “inactive; negative”; (Test System: AMES SALMONELLA TYPHIMURIUM, Strain/Indicator: TA98, Metabolic Activation: RAT, LIVER, S-9, AROCLOR 1254 (10%), Method: PREINCUBATION) “inactive; negative”. Moreover, the mutagenic call reads like this: (Test System: AMES SALMONELLA TYPHIMURIUM, Strain/Indicator: TA100, Metabolic Activation: HAMSTER, LIVER, S-9, AROCLOR 1254 (10%), Method: PREINCUBATION) “active; positive”; under setting [1], “inactive; negative”; (Test System: AMES SALMONELLA TYPHIMURIUM, Strain/Indicator: TA100, Metabolic Activation: RAT, LIVER, S-9, AROCLOR 1254 (10%), Method: PREINCUBATION) “inactive; negative”; (Test System: AMES SALMONELLA TYPHIMURIUM, Strain/Indicator: TA1535, Metabolic Activation: HAMSTER, LIVER, S-9, AROCLOR 1254 (10%), Method: PREINCUBATION) “inactive; negative”; (Test System: AMES SALMONELLA TYPHIMURIUM, Strain/Indicator: TA1535, Metabolic Activation: NONE, Method: PREINCUBATION) “inactive; negative”; (Test System: AMES SALMONELLA TYPHIMURIUM, Strain/Indicator: TA1535, Metabolic Activation: RAT, LIVER, S-9, AROCLOR 1254 (10%), Method: PREINCUBATION) “inactive; negative”.

For the compound `ClCc1ccc(CCl)cc1`, under setting [2], the mutagenic call is “inactive; negative”.

In the case of `O=[N+]([O-])O.O=[N+]([O-])O.[O]=[U]=[O]`, the mutagenic call (End Point: In vitro micronucleus, Test System: Rat kidney (NRK-52E) cells, Metabolic Activation: None) was “inactive; negative; depleted uranium tested”.

Take `CC(C)(C)ON=O`: the mutagenic call is “active; positive” under setting [1]; “inactive; negative” (Test System: AMES SALMONELLA TYPHIMURIUM, Strain/Indicator: TA100, Metabolic Activation: RAT, LIVER, S-9, AROCLOR, Method: PREINCUBATION); “inactive; negative” (Test System: AMES SALMONELLA TYPHIMURIUM, Strain/Indicator: TA102, Metabolic Activation: NONE, Method: PREINCUBATION).

On to `CN(CCCCO)N=O`, for which the mutagenic call (Test System: AMES SALMONELLA TYPHIMURIUM, Strain/Indicator: TA1535, Metabolic Activation: RAT, LIVER, S-9, KC500 OR PHENOBARBITAL, Method: LIQUID SUSPENSION) was “active; positive”.

Turning to `CC1(O)CC2CCC1(C)C2(C)C` (centres undefined), the mutagenic call is, setting by setting: under setting [2], “inactive; negative”; under setting [3], “inactive; negative”; under setting [4], “inactive; negative”; under setting [5], “inactive; negative”.

Consider `C[C@]12CC[C@@H](OC(=O)/C=C/c3cccc(N(CCCl)CCCl)c3)C[C@@H]1CC[C@@H]1[C@@H]2CC[C@]2(C)NC(=O)CC[C@@H]12`, for which the mutagenic call runs as follows: under setting [2], “inactive; negative”; under setting [3], “inactive; negative”; under setting [4], “inactive; negative”; under setting [5], “inactive; negative”; (Test System: AMES SALMONELLA TYPHIMURIUM, Strain/Indicator: TA1535, Metabolic Activation: NONE, Method: STANDARD PLATE) “active; positive”; (Test System: AMES SALMONELLA TYPHIMURIUM, Strain/Indicator: TA1535, Metabolic Activation: RAT, LIVER, S-9, AROCLOR 1254, Method: STANDARD PLATE) “active; positive”. Further, the mutagenic call is, setting by setting: (Test System: AMES SALMONELLA TYPHIMURIUM, Strain/Indicator: TA1537, Metabolic Activation: NONE, Method: STANDARD PLATE) “inactive; negative”; (Test System: AMES SALMONELLA TYPHIMURIUM, Strain/Indicator: TA1537, Metabolic Activation: RAT, LIVER, S-9, AROCLOR 1254, Method: STANDARD PLATE) “inactive; negative”.

Regarding `ONc1ccc(Oc2ccccc2)cc1`, the mutagenic call runs as follows: under setting [2], “active; positive”; under setting [4], “active; positive”.

Take `NC1CCCCC1`: the mutagenic call is “inactive; negative” (Test System: CHINESE HAMSTER OVARY, Strain/Indicator: CHO-K1-BH4 (HGPRT), Metabolic Activation: NONE, Method: STANDARD PLATE); “inactive; negative” (Test System: CHINESE HAMSTER OVARY, Strain/Indicator: CHO-K1-BH4 (HGPRT), Metabolic Activation: RAT, LIVER, S-9, Method: STANDARD PLATE); “inactive; negative” (Test System: UDS RODENT HEPATOCYTES, Strain/Indicator: THY INCORP (NON-S-PHASE), Metabolic Activation: NONE, Method: AUTORADIOGRAPHY).

Consider `Nc1ccc2sncc2c1`, for which the mutagenic call (Test System: AMES SALMONELLA TYPHIMURIUM, Strain/Indicator: TA100, Metabolic Activation: S-9, Method: STANDARD PLATE) was “active; positive”.

For the compound `[Si]`, the mutagenic call reads like this: (Test System: AMES SALMONELLA TYPHIMURIUM, Strain/Indicator: TA98, Metabolic Activation: RAT LIVER S-9, PHENOBARBITAL AND BETA-NAPHTHOFLAVONE, Method: GAS EXPOSURE) “active; positive”; (Test System: AMES SALMONELLA TYPHIMURIUM, Strain/Indicator: TA98, Metabolic Activation: RAT, LIVER, S-9, PHENOBARBITAL AND 5,6-BENZOFLAVONE, Method: GAS EXPOSURE) “active; positive”; (Test System: AMES SALMONELLA TYPHIMURIUM, Strain/Indicator: TA100, Metabolic Activation: NONE, Method: GAS EXPOSURE) “inactive; negative”; (Test System: AMES SALMONELLA TYPHIMURIUM, Strain/Indicator: TA100, Metabolic Activation: RAT LIVER S-9, PHENOBARBITAL AND BETA-NAPHTHOFLAVONE, Method: GAS EXPOSURE) “inactive; negative”; (Test System: AMES SALMONELLA TYPHIMURIUM, Strain/Indicator: TA100, Metabolic Activation: RAT, LIVER, S-9, PHENOBARBITAL AND 5,6-BENZOFLAVONE, Method: GAS EXPOSURE) “inactive; negative”; (Test System: AMES SALMONELLA TYPHIMURIUM, Strain/Indicator: TA1535, Metabolic Activation: NONE, Method: GAS EXPOSURE) “inactive; negative”. Besides, the mutagenic call was “inactive; negative” (Test System: AMES SALMONELLA TYPHIMURIUM, Strain/Indicator: TA1535, Metabolic Activation: RAT LIVER S-9, PHENOBARBITAL AND BETA-NAPHTHOFLAVONE, Method: GAS EXPOSURE); “inactive; negative” (Test System: AMES SALMONELLA TYPHIMURIUM, Strain/Indicator: TA1535, Metabolic Activation: RAT, LIVER, S-9, PHENOBARBITAL AND 5,6-BENZOFLAVONE, Method: GAS EXPOSURE); “active; positive” (Test System: AMES SALMONELLA TYPHIMURIUM, Strain/Indicator: TA1537, Metabolic Activation: RAT, LIVER, S-9, PHENOBARBITAL AND 5,6-BENZOFLAVONE, Method: GAS EXPOSURE); “inactive; negative” (Test System: E. COLI, Strain/Indicator: WP2 UVRA, Metabolic Activation: NONE, Method: GAS EXPOSURE); “inactive; negative” (Test System: E. COLI, Strain/Indicator: WP2 UVRA, Metabolic Activation: RAT, LIVER, S-9, PHENOBARBITAL AND 5,6-BENZOFLAVONE, Method: GAS EXPOSURE); “inactive; negative” (Test System: E.COLI, Strain/Indicator: WP2UVRA, Metabolic Activation: NONE, Method: GAS EXPOSURE). Also, the mutagenic call (Test System: E.COLI, Strain/Indicator: WP2UVRA, Metabolic Activation: RAT LIVER S-9, PHENOBARBITAL AND BETA-NAPHTHOFLAVONE, Method: GAS EXPOSURE) was “inactive; negative”.
